{"source": "patent US4988681A", "about": "“Phosphinic acid derivatives” (Banyu Pharmaceutical Co., Ltd., priority 1988, dated 1991)", "key": {"[1]": {"assay": "Effect on urinary recovery of carbapenem (imipenem) in rats", "type": "in vivo, Male SD rats", "settings": "urine up to 8 hours, n = 3", "description": "(2) Effect on urinary recovery of carbapenem\nMale SD rats (8 week-old) were grouped, three per group. Imipenem alone was intravenously administered in a dose of 10 mg/kg to a first group. […] For comparison, a combination of imipenem (10 mg/kg) and cilastatin (10 mg/kg) was intravenously administered to a fourth group.\nThe urinary recovery of imipenem was calculated."}, "[2]": {"test_system": "ddY mice", "assay": "Acute toxicity test in mice", "type": "in vivo, Male ddY mice", "settings": "7 days", "description": "(5) Acute toxicity test in mice\nMale ddY mice (4 week-old; body weight 24-26 g) were divided into groups each consisting of 5 animals. The compound No. 2 was intravenously administered to a first group in a dose of 2,000 mg/kg. The compound No. 2 was orally administered to a second group in a dose of 4,000 mg/kg. After the administration, the incidence of death was observed over 7 days after the administration, and the results are shown in Table 5."}, "[3]": {"assay": "Pharmacokinetic evaluation: plasma concentration in dogs", "type": "in vivo, Male beagle dogs", "settings": "dog; for concentration at 0.5 h: 1/2 h; for concentration at 0.25 h: 1/4 h; for concentration at 5 min: 1/12 h; for AUC: trapezoidal rule", "description": "Male beagle dogs (14 month-old) were divided into groups each having three animals. The compound No. 2 was administered intravenously to a first group in a dose of 10 mg/kg. The compound No. 2 was orally administered to a second group in a dose of 10 mg/kg. Then at the points of 1/12, 1/4, 1/2, 1, 2, 4, 6, 8, 24 and 48 hours after the administration, plasma samples were taken periodically from the cephalic vein, and the plasma concentrations of the compounds were measured by an enzyme assay using porcine DHP-I. The results are shown in Table 4-b. The area under the curve (AUC) of the plasma level was determined according to the trapezoidal rule."}, "[4]": {"assay": "Pharmacokinetic evaluation: plasma concentration in rats", "type": "in vivo, Male SD rats", "settings": "plasma, rat; for AUC: trapezoidal rule; for concentration at 0.5 h: 1/2 h; for concentration at 0.25 h: 1/4 h; for concentration at 5 min: 1/12 h", "description": "(4) Pharmacokinetic evaluations\nMale SD rats ([…]) were divided into groups each consisting of three animals. […] Furthermore, cilastatin was intravenously administered to a 14th group as a control group.\nPlasma samples were taken periodically from the carotid artery through a cannula inserted into it at the points of 1/12, 1/4, 1/2, 1, 2, 4, 6, 8 and 24 hours after the administration.\nThe area under the curve (AUC) of the plasma concentration was determined according to the trapezoidal rule."}, "[5]": {"test_system": "nephrotoxicity induced by imipenem", "assay": "Protective action on nephrotoxicity induced by imipenem in rabbits", "type": "in vivo, male Japanese white rabbits", "settings": "compound 150 mg/kg + imipenem 150 mg/kg", "description": "(3) Protective action on nephrotoxicity induced by carbapenem antibiotics\nTwelve male Japanese white rabbits (18 week-old; body weight 3.19-3.54 kg) were divided into three groups each consisting of 4 animals. Imipenem alone was administered in a dose of 150 mg/kg to a first group. To a second group, a combination of imipenem (150 mg/kg) and the compound No. 2 (150 mg/kg) was administered. To a third group as a control, sterilized physiological saline was administered. In all cases, the administration was effected through the auricular vein. Forty-eight hours later, a blood sample was taken from each of the animals, and the BUN and creatinine values were measured. The kidneys of the rabbits were taken and examined histopathologically."}, "[6]": {"settings": "iv 10 mg/kg (cilastatin dose not given)"}}}
{"smiles": "CC(C)CP(=O)(O)C/C(=C\\C1CCCCC1)C(=O)O", "note": "[Compound No. 2, (Z)-3-cyclohexyl-2-(hydroxyisobutylphosphinoyl)methylpropenoic acid]", "values": [{"measurement": "Urinary recovery of imipenem, Mean ± S.D.", "setting": "[1]; inhibitor 10 mg/kg iv with imipenem 10 mg/kg iv", "result": "95.3 ± 6.1", "unit": "%"}, {"measurement": "Urinary recovery of imipenem, Mean ± S.D.", "setting": "[1]; inhibitor 10 mg/kg po 30 minutes before imipenem 10 mg/kg iv", "result": "52.1 ± 4.9", "unit": "%"}, {"measurement": "Mortality, number of dead mice versus number of mice tested", "setting": "[2]; i.v. 2,000 mg/kg", "result": "0/5"}, {"measurement": "Mortality, number of dead mice versus number of mice tested", "setting": "[2]; p.o. 4,000 mg/kg", "result": "0/5"}, {"measurement": "concentration at 0.5 h", "setting": "[3]; iv 10 mg/kg", "result": 52200, "unit": "ng/mL"}, {"measurement": "concentration at 0.25 h", "setting": "[3]; iv 10 mg/kg", "result": 71000, "unit": "ng/mL"}, {"measurement": "concentration at 5 min", "setting": "[3]; iv 10 mg/kg", "result": 87300, "unit": "ng/mL"}, {"measurement": "concentration at 1 h", "setting": "[3]; iv 10 mg/kg", "result": 40800, "unit": "ng/mL"}, {"measurement": "concentration at 2 h", "setting": "[3]; iv 10 mg/kg", "result": 24500, "unit": "ng/mL"}, {"measurement": "concentration at 4 h", "setting": "[3]; iv 10 mg/kg", "result": 6700, "unit": "ng/mL"}, {"measurement": "concentration at 6 h", "setting": "[3]; iv 10 mg/kg", "result": 2400, "unit": "ng/mL"}, {"measurement": "concentration at 8 h", "setting": "[3]; iv 10 mg/kg", "result": 1200, "unit": "ng/mL"}, {"measurement": "concentration at 24 h", "setting": "[3]; iv 10 mg/kg", "result": 100, "unit": "ng/mL"}, {"measurement": "AUC", "setting": "[3]; iv 10 mg/kg", "result": 144000, "unit": "ng·h/mL"}, {"measurement": "concentration at 0.5 h", "setting": "[3]; po 10 mg/kg", "result": 5800, "unit": "ng/mL"}, {"measurement": "concentration at 0.25 h", "setting": "[3]; po 10 mg/kg", "result": 3000, "unit": "ng/mL"}, {"measurement": "concentration at 5 min", "setting": "[3]; po 10 mg/kg", "result": 500, "unit": "ng/mL"}, {"measurement": "concentration at 1 h", "setting": "[3]; po 10 mg/kg", "result": 9600, "unit": "ng/mL"}, {"measurement": "concentration at 2 h", "setting": "[3]; po 10 mg/kg", "result": 7800, "unit": "ng/mL"}, {"measurement": "concentration at 4 h", "setting": "[3]; po 10 mg/kg", "result": 3100, "unit": "ng/mL"}, {"measurement": "concentration at 6 h", "setting": "[3]; po 10 mg/kg", "result": 1600, "unit": "ng/mL"}, {"measurement": "concentration at 8 h", "setting": "[3]; po 10 mg/kg", "result": 700, "unit": "ng/mL"}, {"measurement": "concentration at 24 h", "setting": "[3]; po 10 mg/kg", "result": 700, "unit": "ng/mL"}, {"measurement": "AUC", "setting": "[3]; po 10 mg/kg", "result": 51500, "unit": "ng·h/mL"}, {"measurement": "AUC", "setting": "[4]; [6]", "result": 162000, "unit": "ng·h/mL"}, {"measurement": "AUC", "setting": "[4]; po 10 mg/kg", "result": 24300, "unit": "ng·h/mL"}, {"measurement": "concentration at 0.5 h", "setting": "[4]; [6]", "result": 53700, "unit": "ng/mL"}, {"measurement": "concentration at 0.25 h", "setting": "[4]; [6]", "result": 60700, "unit": "ng/mL"}, {"measurement": "concentration at 5 min", "setting": "[4]; [6]", "result": 84900, "unit": "ng/mL"}, {"measurement": "concentration at 1 h", "setting": "[4]; iv 10 mg/kg (cilastatin dose not given), N.D.: below the detection limit", "result": 42400, "unit": "ng/mL"}, {"measurement": "concentration at 2 h", "setting": "[4]; iv 10 mg/kg", "result": 21800, "unit": "ng/mL"}, {"measurement": "concentration at 4 h", "setting": "[4]; iv 10 mg/kg", "result": 10500, "unit": "ng/mL"}, {"measurement": "concentration at 6 h", "setting": "[4]; iv 10 mg/kg, N.D.: below the detection limit", "result": 5400, "unit": "ng/mL"}, {"measurement": "concentration at 8 h", "setting": "[4]; iv 10 mg/kg", "result": 2500, "unit": "ng/mL"}, {"measurement": "concentration at 0.5 h", "setting": "[4]; po 10 mg/kg", "result": 6800, "unit": "ng/mL"}, {"measurement": "concentration at 0.25 h", "setting": "[4]; po 10 mg/kg", "result": 6600, "unit": "ng/mL"}, {"measurement": "concentration at 5 min", "setting": "[4]; po 10 mg/kg", "result": 3300, "unit": "ng/mL"}, {"measurement": "concentration at 1 h", "setting": "[4]; po 10 mg/kg", "result": 5400, "unit": "ng/mL"}, {"measurement": "concentration at 2 h", "setting": "[4]; po 10 mg/kg", "result": 3800, "unit": "ng/mL"}, {"measurement": "concentration at 4 h", "setting": "[4]; po 10 mg/kg", "result": 2100, "unit": "ng/mL"}, {"measurement": "concentration at 6 h", "setting": "[4]; po 10 mg/kg", "result": 1200, "unit": "ng/mL"}, {"measurement": "concentration at 8 h", "setting": "[4]; po 10 mg/kg, N.D.: below the detection limit", "result": 400, "unit": "ng/mL"}, {"measurement": "Necrosis of the kidney tissue, number of rabbits which necrotized versus number tested", "setting": "[5]", "result": "0/4"}, {"measurement": "BUN", "setting": "[5]; auricular vein, 48 hours", "result": 16.2, "unit": "mg/100 ml"}, {"measurement": "Creatinine", "setting": "[5]; auricular vein, 48 hours", "result": 1.49, "unit": "mg/dL"}, {"measurement": "Necrosis of the kidney tissue", "setting": "[5]; grade in words", "result": "None"}]}
